Experimental data from patent US6610675B1 (priority 1980, dated 2003).

Assays:
Format in all cases: in vivo, rat
thymus weight in rats = experiment: Thymus inhibition testing (subcutaneous administration); settings: for Body weight gain / Thymus / Thymus Inhibition: Table VII, three days
Summary of the method: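 Male Sprague-Dawley rats were dosed systemically. On the fifth day, 48 hours after the last treatment, animals were sacrificed and thymus weights recorded.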

[1] = system: granulation tissue formation caused by implantation of cotton pellets; experiment: Granuloma formation test (local cotton pellet granuloma assay)
Procedure: The test compound was dissolved in acetone and aliquots of varying concentrations were injected into cotton pellets. The pellets were dried and then one pellet was implanted beneath the skin of each test rat. Six days later, the animals were sacrificed and the granulation tissue (granuloma) which formed in and around the implanted pellet was removed, dried and weighed. In addition, the thymi and adrenals were removed and weighed.

[2] = system: blank cotton pellet granuloma; experiment: Blank cotton pellet granuloma assay (intravenous administration); settings: 3 days
Procedure: A further test was undertaken to determine the thymolytic activity of a representative species of the invention as compared to betamethasone 17-valerate. In this test, the drugs were administered intravenously to rats, while using a blank cotton pellet granuloma assay. Male Sprague-Dawley rats, each weighing about 185 grams (166-196 grams), were used. Two cotton pellets, each weighing 30 mg and containing no test compounds, were sterilized and implanted sub-cutaneously into the back of each test animal. This day was considered day 0 of implantation. Test compounds suspended in 0.8% polysorbate 80 were administered intravenously once daily for 3 consecutive days beginning with day 1. On day 5, the animals were sacrificed and the two pellets, with their respective granulomas, were removed, dried overnight in an oven at 50° C. and weighed (dry granuloma weight). The thymi and final body weights were also recorded.
In the foregoing tests, there was determined the deactivation of the representative species of the present soft steroids administered intravenously to rats. […] The test compounds were administered intravenously to rats to check the test compounds also for systemic anti-inflammatory activity as compared to betamethasone 17-valerate. The test compounds were found lower in the inhibition of granulation tissue formation and also in the thymus involution activity than betamethasone 17-valerate. From the results of the tests, it is presumed that the compounds which will not be readily subjected to metabolism (deactivation) have a systemic anti-inflammatory activity, as is the case with betamethasone 17-valerate.

[3] = system: ear swelling induced by croton oil; experiment: Ear edema test; settings: 1 mg/kg topical
Procedure: The test animals were Sprague/Dawley rats weighing approximately 150 grams each. In treatment groups, selected amounts of the test compound were dissolved in acetone containing 5% croton oil and 50 microliters of the solution were applied to the inner surface of the right ear of the rats. A control group was identically treated with vehicle only, i.e. 5% croton oil in acetone. Six hours after croton oil challenge, a constant region of each ear was removed by dissection under anesthesia. Then, 48 hours after steroid treatment, the animals were sacrificed and the thymi and adrenals were removed and weighed. The test results showing the inhibitory effect of topically applied steroids on the ear swelling induced by croton oil are summarized in Table II below.

[4] = Table X, betamethasone 17-valerate = 1

Structure (SMILES): CCCCC(=O)O[C@]1(C(=O)CO)[C@@H](C)C[C@H]2[C@@H]3CCC4=CC(=O)C=C[C@]4(C)[C@@]3(F)[C@@H](O)C[C@@]21C [Betamethasone 17-valerate, reference compound]
- Body weight gain (thymus weight in rats; 0.1 mg/kg/day s.c.): 15.5 ± 0.9 g
- Thymus (thymus weight in rats; 0.1 mg/kg/day s.c.): 362 ± 16 mg
- Thymus Inhibition (thymus weight in rats; 0.1 mg/kg/day s.c.): 23.1%
- Body weight gain (thymus weight in rats; 0.3 mg/kg/day s.c.): 12.4 ± 0.9 g
- Thymus (thymus weight in rats; 0.3 mg/kg/day s.c.): 276 ± 11 mg
- Thymus Inhibition (thymus weight in rats; 0.3 mg/kg/day s.c.): 41.4%
- Body weight gain (thymus weight in rats; 1 mg/kg/day s.c.): 13.0 ± 1.1 g
- Thymus (thymus weight in rats; 1 mg/kg/day s.c.): 200 ± 14 mg
- Thymus Inhibition (thymus weight in rats; 1 mg/kg/day s.c.): 57.5%
- Body weight gain (thymus weight in rats; 3 mg/kg/day s.c.): 9.9 ± 1.3 g
- Thymus (thymus weight in rats; 3 mg/kg/day s.c.): 119 ± 7 mg
- Thymus Inhibition (thymus weight in rats; 3 mg/kg/day s.c.): 74.7%
- Relative Potency (TED40) (thymus weight in rats; [4]): 1
- Relative Potency (TED50) (thymus weight in rats; [4]): 1
- TED40 (thymus weight in rats; Table X, dose required to achieve 40% inhibition of thymi weight, subcutaneous): 0.30 mg
- TED50 (thymus weight in rats; Table X, dose required to achieve 50% inhibition of thymi weight, subcutaneous): 0.58 mg
- Relative Potency (TED40) (thymus weight in rats; Table XII, hydrocortisone 17-butyrate = 1): 4
- TED40 (thymus weight in rats; Table XII, thymus inhibition effect, subcutaneously): 0.3 mg/kg
- Body wt. gain ([1]; Table III, 1 mg/pellet): 16.6 ± 1.9 g
- Granulation tissue Dry wt. ([1]; Table III, 1 mg/pellet): 35.4 ± 7.3 mg/100 g body wt.
- Granulation tissue Inhibition ([1]; Table III, 1 mg/pellet): 19.0%
- Relative organ weight Adrenals ([1]; Table III, 1 mg/pellet): 15.5 ± 1.3 mg/100 g body wt.
- Relative organ weight Adrenals (Decrease %) ([1]; Table III, 1 mg/pellet): (34.6) %
- Relative organ weight Thymus ([1]; Table III, 1 mg/pellet): 47 ± 2 mg/100 g body wt.
- Relative organ weight Thymus (Decrease %) ([1]; Table III, 1 mg/pellet): (85.6) %
- Body wt. gain ([1]; Table III, 3 mg/pellet): 14.9 ± 1.7 g
- Granulation tissue Dry wt. ([1]; Table III, 3 mg/pellet): 31.6 ± 2.1 mg/100 g body wt.
- Granulation tissue Inhibition ([1]; Table III, 3 mg/pellet): 27.7%
- Relative organ weight Adrenals ([1]; Table III, 3 mg/pellet): 13.6 ± 0.9 mg/100 g body wt.
- Relative organ weight Adrenals (Decrease %) ([1]; Table III, 3 mg/pellet): (42.6) %
- Relative organ weight Thymus ([1]; Table III, 3 mg/pellet): 38 ± 3 mg/100 g body wt.
- Relative organ weight Thymus (Decrease %) ([1]; Table III, 3 mg/pellet): (88.3) %
- Body wt. gain ([1]; Table III, 10 mg/pellet): 17.0 ± 2.1 g
- Granulation tissue Dry wt. ([1]; Table III, 10 mg/pellet): 40.7 ± 2.6 mg/100 g body wt.
- Granulation tissue Inhibition ([1]; Table III, 10 mg/pellet): 6.9%
- Relative organ weight Adrenals ([1]; Table III, 10 mg/pellet): 12.6 ± 0.9 mg/100 g body wt.
- Relative organ weight Adrenals (Decrease %) ([1]; Table III, 10 mg/pellet): (46.8) %
- Relative organ weight Thymus ([1]; Table III, 10 mg/pellet): 43 ± 4 mg/100 g body wt.
- Relative organ weight Thymus (Decrease %) ([1]; Table III, 10 mg/pellet): (86.8) %
- Body wt. gain ([1]; Table IV, 100 μg/pellet): 24.9 ± 1.9 g
- Granulation tissue Dry wt. ([1]; Table IV, 100 μg/pellet): 41.1 ± 2.7 mg
- Granulation tissue Dry wt. Inhibition ([1]; Table IV, 100 μg/pellet): 49.4%
- Granulation tissue Wet wt. ([1]; Table IV, 100 μg/pellet): 400 ± 19 mg
- Granulation tissue Wet wt. Inhibition ([1]; Table IV, 100 μg/pellet): 29.3%
- Thymus wt. ([1]; Table IV, 100 μg/pellet): 364 ± 24 mg
- Thymus wt. (Decrease %) ([1]; Table IV, 100 μg/pellet): (18.2) %
- Body wt. gain ([1]; Table IV, 300 μg/pellet): 22.3 ± 1.2 g
- Granulation tissue Dry wt. ([1]; Table IV, 300 μg/pellet): 33.3 ± 3.6 mg
- Granulation tissue Dry wt. Inhibition ([1]; Table IV, 300 μg/pellet): 59.0%
- Granulation tissue Wet wt. ([1]; Table IV, 300 μg/pellet): 347 ± 15 mg
- Granulation tissue Wet wt. Inhibition ([1]; Table IV, 300 μg/pellet): 38.7%
- Thymus wt. ([1]; Table IV, 300 μg/pellet): 264 ± 29 mg
- Thymus wt. (Decrease %) ([1]; Table IV, 300 μg/pellet): (40.7) %
- Body wt. gain ([1]; Table IV, 1000 μg/pellet): 5.3 ± 1.0 g
- Granulation tissue Dry wt. ([1]; Table IV, 1000 μg/pellet): 38.1 ± 4.8 mg
- Granulation tissue Dry wt. Inhibition ([1]; Table IV, 1000 μg/pellet): 53.1%
- Granulation tissue Wet wt. ([1]; Table IV, 1000 μg/pellet): 363 ± 28 mg
- Granulation tissue Wet wt. Inhibition ([1]; Table IV, 1000 μg/pellet): 35.9%
- Thymus wt. ([1]; Table IV, 1000 μg/pellet): 77 ± 5 mg
- Thymus wt. (Decrease %) ([1]; Table IV, 1000 μg/pellet): (82.7) %
- Body wt. gain ([1]; Table IV, 3000 μg/pellet): 6.6 ± 1.4 g
- Granulation tissue Dry wt. ([1]; Table IV, 3000 μg/pellet): 43.0 ± 4.1 mg
- Granulation tissue Dry wt. Inhibition ([1]; Table IV, 3000 μg/pellet): 47.0%
- Granulation tissue Wet wt. ([1]; Table IV, 3000 μg/pellet): 374 ± 15 mg
- Granulation tissue Wet wt. Inhibition ([1]; Table IV, 3000 μg/pellet): 33.9%
- Thymus wt. ([1]; Table IV, 3000 μg/pellet): 63 ± 3 mg
- Thymus wt. (Decrease %) ([1]; Table IV, 3000 μg/pellet): (85.8) %
- Body wt. gain ([1]; Table V-a, 10 μg/pellet): 31.8 ± 1.6 g
- Granulation tissue Dry wt. ([1]; Table V-a, 10 μg/pellet): 38.5 ± 6.2 mg
- Granulation tissue Dry wt. Inhibition ([1]; Table V-a, 10 μg/pellet): 51.9%
- Granulation tissue Wet wt. ([1]; Table V-a, 10 μg/pellet): 375 ± 19 mg
- Granulation tissue Wet wt. Inhibition ([1]; Table V-a, 10 μg/pellet): 28.6%
- Thymus wt. ([1]; Table V-a, 10 μg/pellet): 479 ± 25 mg
- Thymus wt. (Decrease %) ([1]; Table V-a, 10 μg/pellet): (3.2) %
- Body wt. gain ([1]; Table V-a, 30 μg/pellet): 30.8 ± 3.0 g
- Granulation tissue Dry wt. ([1]; Table V-a, 30 μg/pellet): 46.2 ± 7.4 mg
- Granulation tissue Dry wt. Inhibition ([1]; Table V-a, 30 μg/pellet): 42.3%
- Granulation tissue Wet wt. ([1]; Table V-a, 30 μg/pellet): 412 ± 42 mg
- Granulation tissue Wet wt. Inhibition ([1]; Table V-a, 30 μg/pellet): 21.5%
- Thymus wt. ([1]; Table V-a, 30 μg/pellet): 484 ± 23 mg
- Thymus wt. (Decrease %) ([1]; Table V-a, 30 μg/pellet): (2.2) %
- Body wt. gain ([1]; Table V-a, 100 μg/pellet): 25.7 ± 1.2 g
- Granulation tissue Dry wt. ([1]; Table V-a, 100 μg/pellet): 41.0 ± 4.2 mg
- Granulation tissue Dry wt. Inhibition ([1]; Table V-a, 100 μg/pellet): 48.8%
- Granulation tissue Wet wt. ([1]; Table V-a, 100 μg/pellet): 419 ± 20 mg
- Granulation tissue Wet wt. Inhibition ([1]; Table V-a, 100 μg/pellet): 20.2%
- Thymus wt. ([1]; Table V-a, 100 μg/pellet): 378 ± 30 mg
- Thymus wt. (Decrease %) ([1]; Table V-a, 100 μg/pellet): (23.6) %
- ED50 ([1]; Table XII, anti-inflammatory effect in cotton pellet granuloma): 100 μg/pellet
- Body wt. gain ([2]; 0.1 mg/kg/day i.v.): 14.4 ± 1.6 g
- Dry granuloma wt. ([2]; 0.1 mg/kg/day i.v.): 49.3 ± 3.9 mg
- Dry granuloma wt. Inhibition ([2]; 0.1 mg/kg/day i.v.): 21.4%
- Thymus wt. ([2]; 0.1 mg/kg/day i.v.): 305 ± 14 mg
- Thymus wt. Decrease ([2]; 0.1 mg/kg/day i.v.): 27.7%
- Body wt. gain ([2]; 0.3 mg/kg/day i.v.): 12.2 ± 1.1 g
- Dry granuloma wt. ([2]; 0.3 mg/kg/day i.v.): 44.4 ± 2.8 mg
- Dry granuloma wt. Inhibition ([2]; 0.3 mg/kg/day i.v.): 29.2%
- Thymus wt. ([2]; 0.3 mg/kg/day i.v.): 288 ± 27 mg
- Thymus wt. Decrease ([2]; 0.3 mg/kg/day i.v.): 31.8%
- Body wt. gain ([2]; 1 mg/kg/day i.v.): 12.9 ± 1.1 g
- Dry granuloma wt. ([2]; 1 mg/kg/day i.v.): 46.1 ± 4.3 mg
- Dry granuloma wt. Inhibition ([2]; 1 mg/kg/day i.v.): 26.5%
- Thymus wt. ([2]; 1 mg/kg/day i.v.): 233 ± 15 mg
- Thymus wt. Decrease ([2]; 1 mg/kg/day i.v.): 44.8%
- Body wt. gain ([2]; 3 mg/kg/day i.v.): 13.0 ± 2.5 g
- Dry granuloma wt. ([2]; 3 mg/kg/day i.v.): 47.3 ± 2.7 mg
- Dry granuloma wt. Inhibition ([2]; 3 mg/kg/day i.v.): 24.6%
- Thymus wt. ([2]; 3 mg/kg/day i.v.): 167 ± 22 mg
- Thymus wt. Decrease ([2]; 3 mg/kg/day i.v.): 60.4%
- Ear Weight, % Increase ([3]; 6 hr): 10.9 ± 6.3 %
- Ear Weight, % Inhibition ([3]; 6 hr): 82.2%
- Ear Weight, Inflamed Ear ([3]; 6 hr): 55.4 ± 1.2 mg
- Ear Weight, Untreated Ear ([3]; 6 hr): 50.4 ± 2.0 mg
- Relative organ weight Adrenals ([3]; 48 hours): 18.9 ± 1.9 mg/100 g body wt.
- Relative organ weight Thymus ([3]; 48 hours): 267 ± 19 mg/100 g body wt.
